One compound from US7943606B2, “Compositions and methods to control abnormal cell growth” (CanCure Laboratories, LLC, priority 2005, dated 2011) can be followed below.

Like-named read-outs stand apart in the source and are kept apart here.

One assay concerns CaOV-3 cells. Nature of the assay: Viability of CaOV-3 ovarian cancer cells (MTT assay). In kind it is cell-based, human. On the procedure: (§1) To quantify cell death, around the time when significant and characteristic morphological changes took place, cells were pulse-labeled for 10 minutes with [^3H]thymidine to measure DNA activity as described elsewhere [Tomono, M. and Kiss, Z. (1995), “Ethanol enhances the stimulatory effects of insulin and insulin-like growth factor-I on DNA synthesis in NIH 3T3 fibroblasts,” Biochem. Biophys. Res. Commun. 208, 63-67]. Also, cells were collected as suspensions using trypsin, an established method in cell biology, followed by re-plating of cells in fresh tissue culture medium. If no viable cells were obtained after one week in culture, it meant that the cells at the time of re-plating were dead. Survival values obtained with untreated cells were considered 100%. For the determination of relative number of viable cells after treatments, in most cases the MTT assay was used. This calorimetric assay is based on the ability of living cells, but not dead cells, to reduce 3-(4,5-dimethyl thiazol-2-yl)-2,5-diphenyltetrazolium bromide [Carmichael, J, De Graff, W. G., Gazdar, A. F., Minna, J. D. and Mitchell, J. B. (1987), “Evaluation of tetrazolium-based semi-automated calorimetric assay: Assessment of chemosensitivity testing,” Cancer Res. 47, 936-942]. For this assay, cells were plated in 96-well plates, and the MTT assay was performed both in untreated and treated cell cultures. The MTT assay also was performed at the start of treatments to allow assessment of proliferation rates in the control and treated cell cultures.
(§2) NIH3T3, T47D, A-431, HT-29, and MEL-28 cells were cultured as indicated earlier. CaOV-3 human ovarian cancer cells were cultured in DMEM containing 10% FBS. ZR-75-1 human estrogen receptor-positive breast cancer cells were maintained in RPMI 1640 medium supplemented with 10% FBS. HTB-157 human fetal fibroblasts, MEL-24 human malignant melanoma cells, Hep G2 human hepatoblastoma cells, and CaCO-2 human colon adenocarcinoma cells were maintained in Eagles's MEM containing 10% FBS. MB-231 human estrogen receptor-negative breast cancer cells were maintained in Leibovitz's L-15 medium supplemented with 10% FBS. Cells were seeded into 96-well plates and treated at ˜70-90% confluency. Two hours prior to treatments the medium was changed for fresh 10% serum medium, and then the cells were incubated for 10 days in the absence (□) or presence of 50 μM CCDTHT ? or 100 μM CCDTHT (▪). The medium was changed and the cells were re-treated on days 3 and 6. The MTT assay was used to determine cell viability on day 10. The data, shown in FIG. 6, are the mean±std. dev. of 8 incubations in one experiment. (The experiment was repeated twice with similar results).
The MRC-5 cell line is derived from normal lung tissue of a […] fetus. MRC-5 cells were maintained and treated in Eagles Medium with Hanks' BSS containing 10% fetal bovine serum. The T47D cells were maintained and treated in RPMI 1640 medium supplemented with 0.2 IU bovine insulin and 10% fetal bovine serum. The CaOV-3 human ovarian cancer cells were cultured in Dulbecco's modified Eagle's medium containing 10% fetal bovine serum. The cells were seeded in 96-well plates either at 10,000 cells per well or 30,000 cells per well to examine the antiproliferative and cytotoxic effects of various CC compounds, respectively. The cells were incubated for 24 hours, then the medium was changed followed by the treatments of cultures 2 hours after the medium change. At this point, cell cultures seeded at 10,000 cells per well and 30,000 cells per well were 25-35% and 80-90% confluent, respectively. Incubations were continued for 72 hours followed by the MTT assay. The data, shown in TABLE 2, indicate the inhibitory concentrations of CC compounds (IC50) required for 50% decrease in the number of viable cells. These numbers are calculated from the mean of 4 incubations in one experiment (the experiment was repeated once with similar results). […]

The next assay concerns NIH 3T3 cells. Briefly: Viability of NIH 3T3 normal fibroblasts (MTT assay). In kind it is cell-based. The note with it: 72 hours. As for the experimental part: as §1
(§3) The NIH 3T3 (normal) mouse fibroblast, A431 human epidermoid adenocarcinoma, and MCF-7 human breast cancer cells were cultured in DMEM medium containing 10% FBS. The MEL-28 human melanoma cells were cultured in MEM medium containing 10% FBS. The HT-29 human colon adenocarcinoma cells were cultured in McCoy's 5a medium containing 10% FBS. The A549 human lung carcinoma cells were maintained in Ham's F12K medium containing 10% FBS. Cells were seeded into 96-well plates and treated at ˜70-90% confluency. Two hours before treatments the medium was changed for fresh 10% serum medium, and then the cells were incubated for 72 hours in the presence of 0-200 μM of CCompound1 (●) or CCompound3 (CCDTHT) (▴), as indicated. The MTT assay was used to determine cell viability after treatments. The values, shown in FIGS. 5A-5F and expressed as percent decrease in viability compared to the untreated control cells, are the mean±std. dev. of 8 incubations in one experiment. Similar results were obtained in another experiment.
as §2
(§4) NIH 3T3, MEL-28, MEL-24, CaOV-3, ZR-75-1, and T47D cells were cultured as described above. The OVCAR human ovarian cancer cells were cultured in DMEM containing 10% FBS. Cells were seeded into 96-well plates and used at ˜60-80% confluency. […]

Another assay concerns MEL-24 cells. Nature of the assay: Viability of MEL-24 melanoma cells (MTT assay). The class given is cell-based. The note with it: Homo sapiens. On the procedure: as §1, §2
(§5) NIH 3T3, MEL-28, MEL-24, CaOV-3, ZR-75-1, and T47D cells were cultured as described above. The OVCAR human ovarian cancer cells were cultured in DMEM containing 10% FBS. Cells were seeded into 96-well plates and used at ˜60-80% confluency. Two hours before treatments the medium was changed for fresh 10% serum medium, and then the cells were incubated for 72 hours in the absence or presence of 100 μM of each of CC compounds as listed in TABLE 3. The inhibitory effects of CC compounds on cell proliferation are expressed as percent decrease compared to untreated cell cultures (the greater the number, the greater the inhibitory effect of the CC compound). […] Also, for the treatment of ovarian cancer and breast cancer, CCDTHT seems to be the best choice (although in this experiment CCompounds21-26 were not tested).

The subject of the next assay is ZR-75-1 cells. Briefly: Viability of ZR-75-1 breast cancer cells (MTT assay). The class given is cell-based, human. As for the experimental part:
as §1, §2, §5

The next assay relates to A-431 cells. Briefly: Viability of A-431 epidermoid adenocarcinoma cells (MTT assay). The class given is cell-based, human. As for the experimental part:
as §1, §3, §2, §4

In another assay the test system is PC-3 cells. Briefly: Proliferation of PC-3 prostate cancer cells. In kind it is cell-based. The note with it: Homo sapiens, similar comparative study (100 μM, 72 hours).
The next assay concerns A549 cells. Briefly: Viability of A549 lung carcinoma cells (MTT assay). The note with it: 0-200 μM, 72 hours, MTT. In kind it is cell-based, human. On the procedure:
To quantify cell death, around the time when significant and characteristic morphological changes took place, cells were pulse-labeled for 10 minutes with [^3H]thymidine to measure DNA activity as described elsewhere [Tomono, M. and Kiss, Z. (1995), “Ethanol enhances the stimulatory effects of insulin and insulin-like growth factor-I on DNA synthesis in NIH 3T3 fibroblasts,” Biochem. Biophys. Res. Commun. 208, 63-67]. Also, cells were collected as suspensions using trypsin, an established method in cell biology, followed by re-plating of cells in fresh tissue culture medium. If no viable cells were obtained after one week in culture, it meant that the cells at the time of re-plating were dead. […]
The NIH 3T3 (normal) mouse fibroblast, A431 human epidermoid adenocarcinoma, and MCF-7 human breast cancer cells were cultured in DMEM medium containing 10% FBS. […] The values, shown in FIGS. 5A-5F and expressed as percent decrease in viability compared to the untreated control cells, are the mean±std. dev. of 8 incubations in one experiment. […]
(§6) NIH 3T3, MEL-28, MEL-24, CaOV-3, ZR-75-1, and T47D cells were cultured as described above. […] The inhibitory effects of CC compounds on cell proliferation are expressed as percent decrease compared to untreated cell cultures (the greater the number, the greater the inhibitory effect of the CC compound). […]

For the next assay, the system named is MB-231 cells. Briefly: Viability of MB-231 breast cancer cells (MTT assay). In kind it is cell-based, human. The note with it: 50 and 100 μM, 10 days, MTT. As for the experimental part:
To quantify cell death, around the time when significant and characteristic morphological changes took place, cells were pulse-labeled for 10 minutes with [^3H]thymidine to measure DNA activity as described elsewhere [Tomono, M. and Kiss, Z. (1995), “Ethanol enhances the stimulatory effects of insulin and insulin-like growth factor-I on DNA synthesis in NIH 3T3 fibroblasts,” Biochem. Biophys. Res. Commun. 208, 63-67]. Also, cells were collected as suspensions using trypsin, an established method in cell biology, followed by re-plating of cells in fresh tissue culture medium. If no viable cells were obtained after one week in culture, it meant that the cells at the time of re-plating were dead. Survival values obtained with untreated cells were considered 100%. For the determination of relative number of viable cells after treatments, in most cases the MTT assay was used. […]
as §6

The test system of another assay is HT-29 cells. Nature of the assay: Viability of HT-29 colon adenocarcinoma cells (MTT assay). In kind it is cell-based, human. The note with it: MTT. On the procedure:
as §1, §3
as §2, with “The MTT assay was used to determine cell viability on day 10. The data, shown in FIG. 6, are the mean±std. dev. of 8 incubations in one experiment. (The experiment was repeated twice with similar results).” left out

With `CC[N+](C)(CC)CCOCc1ccc2sc3ccccc3c(=O)c2c1.[I-]` [CCDTHT, N,N-diethyl-N-methyl-2-[(9-oxo-9H-thioxanthen-2-yl)methoxy]-ethanaminium iodide], in the assay on CaOV-3 cells (50 and 100 μM, 10 days, MTT), the “sensitivity to the inhibitory actions, CaOV-3” value is on record as “very sensitive”. The inhibition at 100 µM was 84% in the assay with CaOV-3 cells (Homo sapiens, Caov-3, 100 μM, 72 hours, read-out: Decrease in cell number (maximal decrease = 100%), CaOV-3); 15% with MEL-24 cells (72 hours, read-out: Decrease in cell number (maximal decrease = 100%), MEL-24); 74% in the assay with ZR-75-1 cells (Homo sapiens, ZR-75-1, 100 μM, 72 hours, read-out: Decrease in cell number (maximal decrease = 100%), ZR-75-1); 68 to 74% in the assay with A-431 cells (Homo sapiens, A-431, similar comparative study (100 μM, 72 hours), read-out: inhibition of proliferation, A-431); 54 to 55% in the assay on PC-3 cells. Besides, the IC50 in the assay on CaOV-3 cells (Homo sapiens, Caov-3, 10,000 cells per well (25-35% confluent), 72 hours, MTT, read-out: IC50 values, Antiproliferative, CaOV-3) came to 38 µM; in the assay with CaOV-3 cells (Homo sapiens, Caov-3, 30,000 cells per well (80-90% confluent), 72 hours, MTT, read-out: IC50 values, Cytotoxic, CaOV-3), 39 µM. The “sensitivity compared with HaCaT cells, NIH 3T3 fibroblasts” value in the assay on NIH 3T3 cells (50 and 100 μM, MTT) is “significantly less sensitive”. Besides, the cytotoxicity at 100 µM was 29% with NIH 3T3 cells (Mus musculus, NIH3T3, 100 μM, read-out: Decrease in cell number (maximal decrease = 100%), NIH 3T3); not above 50% in the assay with MEL-24 cells (240 h, 10 days, MTT, read-out: reduction in the number of viable cells, MEL-24); not above 50% in the assay on HT-29 cells (Homo sapiens, HT-29, 240 h, 100 μM, 10 days, read-out: reduction in the number of viable cells, HT-29). Also, the “sensitivity to the inhibitory actions, ZR-75-1” value in the assay with ZR-75-1 cells (50 and 100 μM, 10 days, MTT) was “very sensitive”. Besides, in the assay with A-431 cells (0-200 μM, 72 hours, MTT), the “decrease in viability, A-431” value is “similarly large effects”. Further, the “sensitivity to the inhibitory actions, A-431” value in the assay with A-431 cells (50 and 100 μM, 10 days, MTT) is “very sensitive”. The “reduction of cell numbers, A-549, CCDTHT versus CCompound1” value with A549 cells is reported as “clearly more effective than CCompound1”. In the assay on MB-231 cells, the “sensitivity to the inhibitory actions, MB-231” value is “moderately sensitive”. Besides, in the assay with HT-29 cells (0-200 μM, 72 hours), the “reduction of cell numbers, HT-29, CCDTHT versus CCompound1” value is reported as “clearly more effective than CCompound1”. The “decrease in the number of viable cells versus 0.5 mM HC-3, HT-29” value with HT-29 cells (100 μM, 72 hours) is reported as “much greater decreases in the number of viable cells compared to 0.5 mM HC-3”.
